Measurements reported in ChEMBL document CHEMBL5055626 (J Med Chem, 2021).
Activity calls are given as the source filed them. The rule behind the calls is not given here. Where a SMILES comes first, the peptide text is derived from it. Bridges are numbered along the chain shown (N, C = ends).

Legend:
[1] = molecular target: Neuronal acetylcholine receptor; alpha2/beta2 (Rattus norvegicus, UniProt P12389+P12390); assay: Antagonist activity at rat alpha2beta2 nAChR expressed in xenopus oocytes assessed as inhibition of Ach- induced response at -70 mV holding potential preincubated for 5 mins followed by Ach stimulation by voltage-clamp based electrophysiological method; type: cell-based, Oocyte
[2] = Antagonist activity at human nAChR alpha7 S184N/R186K double mutant expressed in xenopus oocytes assessed as inhibition of Ach- induced response at -70 mV holding potential preincubated for 5 mins followed by Ach stimulation by voltage-clamp based electrophysiological method; type: cell-based; settings: Oocyte
[3] = molecular target: Nicotinic acetylcholine receptor alpha9/alpha10 (Rattus norvegicus, UniProt P43144+Q9JLB5); assay: Antagonist activity at rat alpha9alpha10 nAChR expressed in xenopus oocytes assessed as inhibition of Ach- induced response at -70 mV holding potential preincubated for 5 mins followed by Ach stimulation by voltage-clamp based electrophysiological method; type: cell-based, Oocyte
[4] = molecular target: Neuronal acetylcholine receptor subunit alpha-7 (Homo sapiens, UniProt P36544); type: cell-based, Oocyte
[5] = Antagonist activity at rat nAChR alpha7 N77T mutant expressed in xenopus oocytes assessed as inhibition of Ach- induced response at -70 mV holding potential preincubated for 5 mins followed by Ach stimulation by voltage-clamp based electrophysiological method; type: cell-based; settings: Oocyte
[6] = molecular target: Neuronal acetylcholine receptor; alpha4/beta2 (Rattus norvegicus, UniProt P09483+P12390); assay: Antagonist activity at rat alpha4beta2 nAChR expressed in xenopus oocytes assessed as inhibition of Ach- induced response at -70 mV holding potential preincubated for 5 mins followed by Ach stimulation by voltage-clamp based electrophysiological method; type: cell-based, Oocyte
[7] = molecular target: Neuronal acetylcholine receptor; alpha4/beta4 (Rattus norvegicus) (UniProt P09483+P12392); assay: Antagonist activity at rat alpha4beta4 nAChR expressed in xenopus oocytes assessed as inhibition of Ach- induced response at 10 uM at -70 mV holding potential preincubated for 5 mins followed by Ach stimulation by voltage-clamp based electrophysiological method; type: cell-based; settings: Oocyte
[8] = Antagonist activity at rat nAChR alpha7 S167G mutant expressed in xenopus oocytes assessed as inhibition of Ach- induced response at -70 mV holding potential preincubated for 5 mins followed by Ach stimulation by voltage-clamp based electrophysiological method; type: cell-based; settings: Oocyte
[9] = Antagonist activity at human nAChR alpha7 R186K mutant expressed in xenopus oocytes assessed as inhibition of Ach- induced response at -70 mV holding potential preincubated for 5 mins followed by Ach stimulation by voltage-clamp based electrophysiological method; type: cell-based; settings: Oocyte
[10] = Antagonist activity at human nAChR alpha7 H141Q/S184N/R186K triple mutant expressed in xenopus oocytes assessed as inhibition of Ach- induced response at -70 mV holding potential preincubated for 5 mins followed by Ach stimulation by voltage-clamp based electrophysiological method; type: cell-based; settings: Oocyte
[11] = molecular target: Neuronal acetylcholine receptor; alpha2/beta4 (Rattus norvegicus, UniProt P12389+P12392); assay: Antagonist activity at rat alpha2beta4 nAChR expressed in xenopus oocytes assessed as inhibition of Ach- induced response at -70 mV holding potential preincubated for 5 mins followed by Ach stimulation by voltage-clamp based electrophysiological method; type: cell-based, Oocyte
[12] = Antagonist activity at rat nAChR alpha7 K186R mutant expressed in xenopus oocytes assessed as inhibition of Ach- induced response at -70 mV holding potential preincubated for 5 mins followed by Ach stimulation by voltage-clamp based electrophysiological method; type: cell-based; settings: Oocyte
[13] = Antagonist activity at human nAChR alpha7 S184N mutant expressed in xenopus oocytes assessed as inhibition of Ach- induced response at -70 mV holding potential preincubated for 5 mins followed by Ach stimulation by voltage-clamp based electrophysiological method; type: cell-based; settings: Oocyte
[14] = Antagonist activity at rat nAChR alpha7 M177V mutant expressed in xenopus oocytes assessed as inhibition of Ach- induced response at -70 mV holding potential preincubated for 5 mins followed by Ach stimulation by voltage-clamp based electrophysiological method; type: cell-based; settings: Oocyte
[15] = molecular target: Neuronal acetylcholine receptor; alpha4/beta4 (Rattus norvegicus, UniProt P09483+P12392); assay: Antagonist activity at rat alpha4beta4 nAChR expressed in xenopus oocytes assessed as inhibition of Ach- induced response at -70 mV holding potential preincubated for 5 mins followed by Ach stimulation by voltage-clamp based electrophysiological method; type: cell-based, Oocyte
[16] = molecular target: Nicotinic acetylcholine receptor alpha9/alpha10 (Rattus norvegicus) (UniProt P43144+Q9JLB5); assay: Antagonist activity at rat alpha9alpha10 nAChR expressed in xenopus oocytes assessed as inhibition of Ach- induced response at 10 uM at -70 mV holding potential preincubated for 5 mins followed by Ach stimulation by voltage-clamp based electrophysiological method; type: cell-based; settings: Oocyte
[17] = Antagonist activity at human nAChR alpha7 H141Q mutant expressed in xenopus oocytes assessed as inhibition of Ach- induced response at -70 mV holding potential preincubated for 5 mins followed by Ach stimulation by voltage-clamp based electrophysiological method; type: cell-based; settings: Oocyte
[18] = molecular target: Neuronal acetylcholine receptor; alpha3/beta4 (Rattus norvegicus, UniProt P04757+P12392); assay: Antagonist activity at rat alpha3beta4 nAChR expressed in xenopus oocytes assessed as inhibition of Ach- induced response at -70 mV holding potential preincubated for 5 mins followed by Ach stimulation by voltage-clamp based electrophysiological method; type: cell-based, Oocyte
[19] = Antagonist activity at rat alpha6/ alpha3beta2beta3 nAChR expressed in xenopus oocytes assessed as inhibition of Ach- induced response at -70 mV holding potential preincubated for 5 mins followed by Ach stimulation by voltage-clamp based electrophysiological method; type: cell-based; settings: Oocyte
[20] = molecular target: Neuronal acetylcholine receptor; alpha2/beta2 (Rattus norvegicus) (UniProt P12389+P12390); assay: Antagonist activity at rat alpha2beta2 nAChR expressed in xenopus oocytes assessed as inhibition of Ach- induced response at 10 uM at -70 mV holding potential preincubated for 5 mins followed by Ach stimulation by voltage-clamp based electrophysiological method; type: cell-based; settings: Oocyte
[21] = molecular target: Neuronal acetylcholine receptor; alpha2/beta4 (Rattus norvegicus) (UniProt P12389+P12392); assay: Antagonist activity at rat alpha2beta4 nAChR expressed in xenopus oocytes assessed as inhibition of Ach- induced response at 10 uM at -70 mV holding potential preincubated for 5 mins followed by Ach stimulation by voltage-clamp based electrophysiological method; type: cell-based; settings: Oocyte
[22] = Antagonist activity at rat nAChR alpha7 Y200F mutant expressed in xenopus oocytes assessed as inhibition of Ach- induced response at -70 mV holding potential preincubated for 5 mins followed by Ach stimulation by voltage-clamp based electrophysiological method; type: cell-based; settings: Oocyte
[23] = molecular target: Neuronal acetylcholine receptor; alpha3/beta4 (Rattus norvegicus) (UniProt P04757+P12392); assay: Antagonist activity at rat alpha3beta4 nAChR expressed in xenopus oocytes assessed as inhibition of Ach- induced response at 10 uM at -70 mV holding potential preincubated for 5 mins followed by Ach stimulation by voltage-clamp based electrophysiological method; type: cell-based; settings: Oocyte
[24] = Antagonist activity at rat nAChR alpha7 Q141H mutant expressed in xenopus oocytes assessed as inhibition of Ach- induced response at -70 mV holding potential preincubated for 5 mins followed by Ach stimulation by voltage-clamp based electrophysiological method; type: cell-based; settings: Oocyte

Chain of Neuronal acetylcholine receptor; alpha3/beta4 (P04757 whole entry): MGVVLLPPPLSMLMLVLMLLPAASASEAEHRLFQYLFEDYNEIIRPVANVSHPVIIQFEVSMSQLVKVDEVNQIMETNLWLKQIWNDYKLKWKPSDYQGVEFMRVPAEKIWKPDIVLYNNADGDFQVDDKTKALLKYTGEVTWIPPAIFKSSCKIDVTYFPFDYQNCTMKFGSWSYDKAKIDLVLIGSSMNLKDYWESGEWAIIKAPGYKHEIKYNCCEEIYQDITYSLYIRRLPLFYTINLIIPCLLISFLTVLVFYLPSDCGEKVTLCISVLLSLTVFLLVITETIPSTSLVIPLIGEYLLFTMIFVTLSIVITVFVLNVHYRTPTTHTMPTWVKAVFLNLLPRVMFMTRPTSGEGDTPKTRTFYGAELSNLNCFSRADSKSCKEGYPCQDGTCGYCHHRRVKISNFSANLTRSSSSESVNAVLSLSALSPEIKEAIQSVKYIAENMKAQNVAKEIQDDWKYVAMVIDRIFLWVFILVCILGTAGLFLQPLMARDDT
Chain of Neuronal acetylcholine receptor; alpha3/beta4 (P12392 whole entry): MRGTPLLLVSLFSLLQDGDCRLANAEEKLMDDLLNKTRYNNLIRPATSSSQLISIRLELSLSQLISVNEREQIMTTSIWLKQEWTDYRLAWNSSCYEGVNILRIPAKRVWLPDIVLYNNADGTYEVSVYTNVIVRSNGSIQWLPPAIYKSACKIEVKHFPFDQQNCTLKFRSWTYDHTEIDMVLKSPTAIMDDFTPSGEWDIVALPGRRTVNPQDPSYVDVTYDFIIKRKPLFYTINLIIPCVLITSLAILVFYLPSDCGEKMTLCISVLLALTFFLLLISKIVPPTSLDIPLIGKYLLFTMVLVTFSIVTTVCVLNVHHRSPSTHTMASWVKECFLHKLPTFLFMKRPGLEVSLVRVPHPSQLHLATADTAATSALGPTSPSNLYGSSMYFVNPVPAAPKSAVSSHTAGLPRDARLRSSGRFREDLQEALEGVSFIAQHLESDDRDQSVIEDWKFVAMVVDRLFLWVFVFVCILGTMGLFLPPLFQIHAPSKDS
Chain of Neuronal acetylcholine receptor; alpha2/beta4 (P12389 whole entry): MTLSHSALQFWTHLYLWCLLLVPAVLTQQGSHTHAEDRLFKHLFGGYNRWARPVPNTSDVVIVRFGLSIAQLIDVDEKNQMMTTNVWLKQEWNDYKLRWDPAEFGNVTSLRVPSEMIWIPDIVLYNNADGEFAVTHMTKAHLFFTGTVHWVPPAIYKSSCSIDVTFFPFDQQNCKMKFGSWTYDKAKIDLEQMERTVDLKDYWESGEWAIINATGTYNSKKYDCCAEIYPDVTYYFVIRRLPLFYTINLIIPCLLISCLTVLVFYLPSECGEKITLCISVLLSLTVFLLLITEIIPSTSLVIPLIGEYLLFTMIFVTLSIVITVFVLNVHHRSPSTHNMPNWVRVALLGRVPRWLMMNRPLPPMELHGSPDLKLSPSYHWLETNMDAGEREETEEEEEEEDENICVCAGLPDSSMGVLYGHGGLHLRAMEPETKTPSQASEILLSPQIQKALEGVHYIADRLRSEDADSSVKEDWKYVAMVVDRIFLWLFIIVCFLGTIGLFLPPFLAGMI
Chain of Neuronal acetylcholine receptor; alpha2/beta4 (P12392 whole entry): as the sequence (P12392 whole entry) above
Chain of Neuronal acetylcholine receptor; alpha2/beta2 (P12389 whole entry): as the sequence (P12389 whole entry) above
Chain of Neuronal acetylcholine receptor; alpha2/beta2 (P12390 whole entry): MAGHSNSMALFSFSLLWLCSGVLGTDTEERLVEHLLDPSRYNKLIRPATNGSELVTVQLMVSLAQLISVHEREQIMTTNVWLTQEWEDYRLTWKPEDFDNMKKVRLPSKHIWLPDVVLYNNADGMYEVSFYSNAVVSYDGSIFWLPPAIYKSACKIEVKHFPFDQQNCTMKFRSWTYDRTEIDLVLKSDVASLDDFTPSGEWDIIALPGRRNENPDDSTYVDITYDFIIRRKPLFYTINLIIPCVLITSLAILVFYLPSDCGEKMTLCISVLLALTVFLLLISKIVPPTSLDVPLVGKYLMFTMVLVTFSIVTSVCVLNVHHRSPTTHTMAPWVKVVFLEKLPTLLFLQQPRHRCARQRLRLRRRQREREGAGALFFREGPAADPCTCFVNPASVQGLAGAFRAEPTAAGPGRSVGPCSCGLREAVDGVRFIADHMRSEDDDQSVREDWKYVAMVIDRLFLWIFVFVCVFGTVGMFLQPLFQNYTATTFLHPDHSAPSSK
Chain of Neuronal acetylcholine receptor; alpha4/beta4 (P09483 whole entry): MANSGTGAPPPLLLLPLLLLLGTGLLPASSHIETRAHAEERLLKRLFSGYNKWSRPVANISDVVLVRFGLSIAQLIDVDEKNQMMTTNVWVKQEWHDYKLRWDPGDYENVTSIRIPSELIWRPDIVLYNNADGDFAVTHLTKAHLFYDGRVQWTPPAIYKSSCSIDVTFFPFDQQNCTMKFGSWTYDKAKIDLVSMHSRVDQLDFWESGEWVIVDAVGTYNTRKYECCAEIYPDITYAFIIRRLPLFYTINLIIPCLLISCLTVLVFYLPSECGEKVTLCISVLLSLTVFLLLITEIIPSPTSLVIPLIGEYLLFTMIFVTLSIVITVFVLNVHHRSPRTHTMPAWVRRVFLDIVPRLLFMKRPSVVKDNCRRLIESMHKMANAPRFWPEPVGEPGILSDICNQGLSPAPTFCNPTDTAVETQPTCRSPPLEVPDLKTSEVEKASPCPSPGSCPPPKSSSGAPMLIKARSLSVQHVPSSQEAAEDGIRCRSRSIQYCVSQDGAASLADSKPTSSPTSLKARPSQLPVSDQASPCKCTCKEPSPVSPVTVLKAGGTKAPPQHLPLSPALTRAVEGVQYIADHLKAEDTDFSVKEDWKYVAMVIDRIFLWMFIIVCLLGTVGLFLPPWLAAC
Chain of Neuronal acetylcholine receptor; alpha4/beta4 (P12392 whole entry): as the sequence (P12392 whole entry) above
Chain of Neuronal acetylcholine receptor; alpha4/beta2 (P09483 whole entry): as the sequence (P09483 whole entry) above
Chain of Neuronal acetylcholine receptor; alpha4/beta2 (P12390 whole entry): as the sequence (P12390 whole entry) above
Chain of Neuronal acetylcholine receptor subunit alpha-7 (P36544 whole entry): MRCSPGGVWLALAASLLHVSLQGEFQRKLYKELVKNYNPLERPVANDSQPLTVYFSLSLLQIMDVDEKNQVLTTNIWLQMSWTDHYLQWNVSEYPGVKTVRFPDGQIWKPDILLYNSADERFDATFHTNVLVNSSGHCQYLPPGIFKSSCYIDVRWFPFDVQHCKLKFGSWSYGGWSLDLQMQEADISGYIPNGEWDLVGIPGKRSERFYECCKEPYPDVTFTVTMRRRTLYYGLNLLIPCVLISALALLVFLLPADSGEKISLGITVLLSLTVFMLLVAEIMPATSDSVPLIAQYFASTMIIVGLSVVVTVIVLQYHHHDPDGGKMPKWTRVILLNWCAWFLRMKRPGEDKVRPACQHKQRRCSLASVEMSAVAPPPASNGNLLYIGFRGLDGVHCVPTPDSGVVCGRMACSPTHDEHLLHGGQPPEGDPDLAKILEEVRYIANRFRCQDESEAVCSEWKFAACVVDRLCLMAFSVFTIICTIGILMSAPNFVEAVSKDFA
Chain of Nicotinic acetylcholine receptor alpha9/alpha10 (P43144 whole entry): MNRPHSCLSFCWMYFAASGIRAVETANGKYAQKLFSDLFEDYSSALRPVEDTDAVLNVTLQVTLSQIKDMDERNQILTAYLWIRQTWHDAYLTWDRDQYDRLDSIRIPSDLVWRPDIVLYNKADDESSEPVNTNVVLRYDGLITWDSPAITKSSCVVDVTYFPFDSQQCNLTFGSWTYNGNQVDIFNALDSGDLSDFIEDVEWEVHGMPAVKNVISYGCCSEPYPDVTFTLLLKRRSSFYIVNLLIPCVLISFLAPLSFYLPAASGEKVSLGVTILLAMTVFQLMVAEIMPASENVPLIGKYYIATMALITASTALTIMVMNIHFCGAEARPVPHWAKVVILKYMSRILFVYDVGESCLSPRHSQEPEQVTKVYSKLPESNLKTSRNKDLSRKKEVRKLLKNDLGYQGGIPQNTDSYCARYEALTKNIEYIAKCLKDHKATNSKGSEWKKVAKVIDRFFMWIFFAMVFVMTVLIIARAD
Chain of Nicotinic acetylcholine receptor alpha9/alpha10 (Q9JLB5 whole entry): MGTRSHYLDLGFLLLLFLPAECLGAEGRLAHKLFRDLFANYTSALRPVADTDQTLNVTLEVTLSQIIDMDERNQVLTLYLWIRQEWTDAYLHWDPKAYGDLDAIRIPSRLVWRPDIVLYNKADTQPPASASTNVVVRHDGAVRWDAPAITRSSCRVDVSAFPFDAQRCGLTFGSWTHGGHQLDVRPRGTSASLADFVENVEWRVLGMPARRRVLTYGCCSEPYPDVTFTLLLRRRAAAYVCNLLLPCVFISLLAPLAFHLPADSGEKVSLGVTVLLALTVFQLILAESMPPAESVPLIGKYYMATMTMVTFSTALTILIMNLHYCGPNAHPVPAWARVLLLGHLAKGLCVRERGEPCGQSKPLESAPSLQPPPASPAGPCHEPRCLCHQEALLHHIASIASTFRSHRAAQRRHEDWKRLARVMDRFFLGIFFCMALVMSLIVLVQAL

With `C[C@@H]1NC(=O)[C@@H]2CSSC[C@H](NC(=O)CN)C(=O)N[C@@H](CSSC[C@@H](C(N)=O)NC(=O)[C@H](Cc3cnc[nH]3)NC(=O)[C@H](CCC(=O)O)NC(=O)[C@H](Cc3cnc[nH]3)NC1=O)C(=O)N[C@@H](CO)C(=O)N[C@@H](CC(N)=O)C(=O)N1CCC[C@H]1C(=O)N1CCC[C@H]1C(=O)N2` (H-GCCSNPPCAHEHC-NH2; disulfide 2-8, 3-13) the IC50 [1] was > 10 µM, the IC50 [2] was 0.53 µM and the IC50 [3] was > 10 µM. The IC50 [4] was 1.57 µM, the IC50 [5] was 0.16 µM and the IC50 [6] was > 10 µM. For the same compound, the inhibition [7] was “inactive”, the IC50 [8] was 0.2 µM and the IC50 [9] was 1.13 µM. For the same compound, the IC50 [10] was 0.22 µM, the IC50 [11] was > 10 µM and the IC50 [12] was 0.43 µM. For the same compound, the IC50 [13] was 0.85 µM, the IC50 [14] was 0.16 µM and the IC50 [15] was > 10 µM. For the same compound, the inhibition [16] was “inactive”, the IC50 [17] was 1.07 µM and the IC50 [18] was > 10 µM. For the same compound, the IC50 [19] was 0.15 µM, the inhibition [20] was “inactive” and the inhibition [21] was “inactive”. The IC50 [22] was 0.19 µM, the inhibition [23] was “inactive” and the IC50 [24] was 0.3 µM.
